From publication PMC3445516 (PLoS ONE, 2012)

Experiments:
FLT3(ITD) = test: Ambit kinase profiling, competition binding; design: species or system human; settings: compound concentration 10 uM
Source text: Supplement pone.0044653.s004.xls, sheet "Compound 122" | column: Percent Competition

p38α = p38α (Homo sapiens, UniProt Q16539); settings: 10 and 100 nM
Method: Phosphorylation of 3.5 µg of p38 substrate was detected in a reaction having 1 µCi [γ-^32P] ATP (Perkin Elmer Life Sciences), 50 µM ATP, 50 ng active recombinant p38 in 50 µL kinase buffer containing 25 mM Tris-HCl, pH 7.5, 10 mM MgCl2, 5 mM β-glycerophosphate, 0.1 mM Na3VO4 and 2 mM DTT. The reaction was incubated at 30°C for 10 minutes and 25 µL of the reaction was spotted on Whatman P81 filter paper. The filter paper was washed 3 times in 0.5% phosphoric acid, air dried and counted using Beckman LS6500 multipurpose scintillation counter. Percent p38 inhibition was graphed using GraphPad Prism software 5.0.

[1] = design: method as in PMID 14561090; settings: cited from earlier work

p38α, sequence (Q16539 whole entry): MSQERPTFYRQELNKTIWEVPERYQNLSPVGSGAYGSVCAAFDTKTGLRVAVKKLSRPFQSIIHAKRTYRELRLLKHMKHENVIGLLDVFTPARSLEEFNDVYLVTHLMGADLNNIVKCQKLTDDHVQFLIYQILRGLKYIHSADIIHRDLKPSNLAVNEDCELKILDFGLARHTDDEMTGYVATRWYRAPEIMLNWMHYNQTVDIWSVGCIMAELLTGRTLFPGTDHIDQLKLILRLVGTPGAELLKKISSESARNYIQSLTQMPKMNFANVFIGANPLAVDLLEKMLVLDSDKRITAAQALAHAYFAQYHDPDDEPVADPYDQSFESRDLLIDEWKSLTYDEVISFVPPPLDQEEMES

Percent Competition (FLT3(ITD)) [%]	Compound	inhibition of p38α (p38α)	pharmacokinetic (PK) parameters [1]
<50	Fc1ccc(-c2c(-c3ccncc3)[nH]c3nccnc23)cc1 [RO1155697-000-005]	–	–
–	CC(O)CNc1cc(-c2[nH]c3cccnc3c2-c2ccc(F)cc2)ccn1 (stereo not drawn) [Compound 140]	most potent	favorable pharmacokinetic (PK) parameters
